# Where a name gives a salt, the structure may show the parent alone.
# Molecular target: Isocitrate dehydrogenase [NADP], mitochondrial (Homo sapiens, UniProt P48735, R172K)
# Assay: Inhibition of IDH2 R172K mutant (unknown origin) assessed as reduction in NADPH consumption using alpha-ketoglutarate and NADPH as substrate preincubated with enzyme for 15 mins followed by substrate addition by fluorescence based assay
# Chain of Isocitrate dehydrogenase [NADP], mitochondrial (Homo sapiens, UniProt P48735, R172K) (P48735 40-452 R172K limits assumed): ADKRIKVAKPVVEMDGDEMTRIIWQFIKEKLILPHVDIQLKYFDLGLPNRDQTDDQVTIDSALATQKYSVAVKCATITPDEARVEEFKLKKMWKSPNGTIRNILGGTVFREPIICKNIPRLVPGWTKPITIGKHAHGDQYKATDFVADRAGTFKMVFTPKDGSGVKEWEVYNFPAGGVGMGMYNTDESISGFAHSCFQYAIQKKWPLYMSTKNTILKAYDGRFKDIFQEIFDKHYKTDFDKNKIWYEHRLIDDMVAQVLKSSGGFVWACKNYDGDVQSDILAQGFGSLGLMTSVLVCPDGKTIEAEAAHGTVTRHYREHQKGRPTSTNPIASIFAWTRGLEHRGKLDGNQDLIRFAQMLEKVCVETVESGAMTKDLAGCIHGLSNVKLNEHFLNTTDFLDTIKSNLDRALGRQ
row,Structure (SMILES),IC50 [nM]
1,CC(C)(O)CNc1nc(Nc2ccccc2)nc(-c2cccc(C(F)(F)F)n2)n1,1430
2,O=C1NCCCCNc2nc(nc(-c3cccc(C(F)(F)F)n3)n2)Nc2cc1cc(C(F)(F)F)c2,> 10000
3,CC1(C)CNc2nc(nc(-c3cccc(C(F)(F)F)n3)n2)Nc2cc(cc(C(F)(F)F)c2)OCCCO1,27.4
4,CC1(C)CCNc2nc(nc(-c3cccc(C(F)(F)F)n3)n2)Nc2cc(cc(C(F)(F)F)c2)CCCCO1,455
5,O=C1OCCCCCNc2nc(nc(-c3cccc(C(F)(F)F)n3)n2)Nc2cc1cc(C(F)(F)F)c2,314
6,CC(C)(O)CNc1nc(Nc2ccnc(C(F)(F)F)c2)nc(-c2cccc(C(F)(F)F)n2)n1 [ENASIDENIB MESYLATE],319
7,FC(F)(F)c1cc2cc(c1)Nc1nc(nc(-c3cccc(C(F)(F)F)n3)n1)NCCCCC2,> 10000
8,CC(C)(O)CNc1nc(Nc2ccncc2)nc(-c2cccc(C(F)(F)F)n2)n1,> 10000

# Other lines, results leading:
row,IC50 [nM],Structure (SMILES)
1,116,FC(F)(F)c1cc2cc(c1)OCCCCCNc1nc(nc(-c3cccc(C(F)(F)F)n3)n1)N2
2,17.7,CC1CNc2nc(nc(-c3cccc(C(F)(F)F)n3)n2)Nc2cc(cc(C(F)(F)F)c2)CCCCO1 (stereo unspecified)
3,830,Cc1cc2cc(c1)Nc1nc(nc(-c3cccc(C(F)(F)F)n3)n1)NCCOC/C=C\C2
4,46.9,FC(F)(F)c1cc2cc(c1)Nc1nc(nc(-c3cccc(C(F)(F)F)n3)n1)NCCCC/C=C/C2
5,92.7,FC(F)(F)c1cc2cc(c1)Nc1nc(nc(-c3cccc(C(F)(F)F)n3)n1)NCCCCC/C=C/C2
6,417,FC(F)(F)c1cccc(-c2nc3nc(n2)Nc2cc(Cl)cc(c2)C/C=C\COCCN3)n1
7,269,CC(C)(O)CNc1nc(Nc2ccnc(C(F)(F)F)c2)nc(-c2cccc(C(F)(F)F)n2)n1 [ENASIDENIB]
8,15.5,C=CCOC(C)(C)CNc1nc(Nc2cccc(C(F)(F)F)c2)nc(-c2cccc(C(F)(F)F)n2)n1
9,688,Fc1cc2cc(c1)Nc1nc(nc(-c3cccc(C(F)(F)F)n3)n1)NCCOC/C=C\C2
10,1320,Cc1cc2cc(c1)Nc1nc(nc(-c3cccc(C(F)(F)F)n3)n1)NCCOCCCC2
11,30.1,FC(F)(F)c1cc2cc(c1)Nc1nc(nc(-c3cccc(C(F)(F)F)n3)n1)NCCCCCCC2
12,881,Fc1cc2cc(c1)Nc1nc(nc(-c3cccc(C(F)(F)F)n3)n1)NCCOCCCC2
13,50.3,FC(F)(F)c1cc2cc(c1)OC/C=C\CCCNc1nc(nc(-c3cccc(C(F)(F)F)n3)n1)N2
14,443,FC(F)(F)c1cccc(-c2nc3nc(n2)Nc2cc(Cl)cc(c2)CCCCOCCN3)n1

# Molecular target: T1, Isocitrate dehydrogenase [NADP], mitochondrial (Homo sapiens, UniProt P48735)
# T1 sequence (P48735 whole entry): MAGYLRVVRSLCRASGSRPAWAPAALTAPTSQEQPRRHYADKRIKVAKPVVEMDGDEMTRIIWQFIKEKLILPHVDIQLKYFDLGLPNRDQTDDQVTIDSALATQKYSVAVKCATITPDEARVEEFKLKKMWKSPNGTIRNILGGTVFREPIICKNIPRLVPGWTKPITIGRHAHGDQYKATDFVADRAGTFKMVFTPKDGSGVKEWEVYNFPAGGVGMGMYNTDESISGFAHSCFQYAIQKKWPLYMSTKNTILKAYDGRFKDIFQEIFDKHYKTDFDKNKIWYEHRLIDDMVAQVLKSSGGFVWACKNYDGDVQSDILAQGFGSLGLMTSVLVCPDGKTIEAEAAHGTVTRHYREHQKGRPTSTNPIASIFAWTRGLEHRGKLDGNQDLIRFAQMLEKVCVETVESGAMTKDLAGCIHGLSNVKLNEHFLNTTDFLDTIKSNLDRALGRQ
# Assay: Inhibition of wild type IDH2 (unknown origin) assessed as reduction in NADPH production using sodium(D)-isocitrate and NADP as substrate preincubated with enzyme for 15 mins followed by substrate addition by fluorescence based assay
row,Structure (SMILES),IC50 [nM]
1,CC1CNc2nc(nc(-c3cccc(C(F)(F)F)n3)n2)Nc2cc(cc(C(F)(F)F)c2)C/C=C\CO1 (stereo unspecified),> 20000
2,CC(C)(O)CNc1nc(Nc2ccccc2)nc(-c2cccc(C(F)(F)F)n2)n1,> 20000
3,CC1(C)CNc2nc(nc(-c3cccc(C(F)(F)F)n3)n2)Nc2cc(cc(C(F)(F)F)c2)C/C=C\CO1,> 20000
4,O=C1NCCCCNc2nc(nc(-c3cccc(C(F)(F)F)n3)n2)Nc2cc1cc(C(F)(F)F)c2,> 20000
5,CC1(C)CNc2nc(nc(-c3cccc(C(F)(F)F)n3)n2)Nc2cc(cc(C(F)(F)F)c2)OCCCO1,> 20000
6,CC1(C)CCNc2nc(nc(-c3cccc(C(F)(F)F)n3)n2)Nc2cc(cc(C(F)(F)F)c2)CCCCO1,> 20000
7,O=C1OCCCCCNc2nc(nc(-c3cccc(C(F)(F)F)n3)n2)Nc2cc1cc(C(F)(F)F)c2,> 20000
8,FC(F)(F)c1cc2cc(c1)Nc1nc(nc(-c3cccc(C(F)(F)F)n3)n1)NCCCCC2,> 20000
9,CC(C)(O)CNc1nc(Nc2ccncc2)nc(-c2cccc(C(F)(F)F)n2)n1,> 20000

# Now from value to compound:
row,IC50 [nM],Structure (SMILES)
1,> 20000,FC(F)(F)c1cc2cc(c1)OCCCCCNc1nc(nc(-c3cccc(C(F)(F)F)n3)n1)N2
2,> 20000,CC1CNc2nc(nc(-c3cccc(C(F)(F)F)n3)n2)Nc2cc(cc(C(F)(F)F)c2)CCCCO1 (stereo unspecified)
3,> 20000,Cc1cc2cc(c1)Nc1nc(nc(-c3cccc(C(F)(F)F)n3)n1)NCCOC/C=C\C2
4,> 20000,FC(F)(F)c1cc2cc(c1)Nc1nc(nc(-c3cccc(C(F)(F)F)n3)n1)NCCCC/C=C/C2
5,> 20000,FC(F)(F)c1cc2cc(c1)Nc1nc(nc(-c3cccc(C(F)(F)F)n3)n1)NCCCCC/C=C/C2
6,> 20000,FC(F)(F)c1cccc(-c2nc3nc(n2)Nc2cc(Cl)cc(c2)C/C=C\COCCN3)n1
7,> 20000,CC(C)(O)CNc1nc(Nc2ccnc(C(F)(F)F)c2)nc(-c2cccc(C(F)(F)F)n2)n1 [ENASIDENIB]
8,> 20000,C=CCOC(C)(C)CNc1nc(Nc2cccc(C(F)(F)F)c2)nc(-c2cccc(C(F)(F)F)n2)n1
9,> 20000,Fc1cc2cc(c1)Nc1nc(nc(-c3cccc(C(F)(F)F)n3)n1)NCCOC/C=C\C2
10,> 20000,Cc1cc2cc(c1)Nc1nc(nc(-c3cccc(C(F)(F)F)n3)n1)NCCOCCCC2
11,> 20000,FC(F)(F)c1cc2cc(c1)Nc1nc(nc(-c3cccc(C(F)(F)F)n3)n1)NCCCCCCC2
12,> 20000,Fc1cc2cc(c1)Nc1nc(nc(-c3cccc(C(F)(F)F)n3)n1)NCCOCCCC2
13,> 20000,FC(F)(F)c1cc2cc(c1)OC/C=C\CCCNc1nc(nc(-c3cccc(C(F)(F)F)n3)n1)N2
14,> 20000,FC(F)(F)c1cccc(-c2nc3nc(n2)Nc2cc(Cl)cc(c2)CCCCOCCN3)n1

# Molecular target: Isocitrate dehydrogenase [NADP], mitochondrial (Homo sapiens, UniProt P48735, R140Q)
# Assay: Inhibition of IDH2 R140Q mutant (unknown origin) assessed as reduction in NADPH consumption using alpha-ketoglutarate and NADPH as substrate preincubated with enzyme for 15 mins followed by substrate addition by fluorescence based assay
# Chain of Isocitrate dehydrogenase [NADP], mitochondrial (Homo sapiens, UniProt P48735, R140Q) (P48735 40-452 R140Q limits assumed): as the sequence (P48735 40-452 R172K limits assumed) above, with R101Q, K133R counted along it
row,Structure (SMILES),IC50 [nM]
1,CC1CNc2nc(nc(-c3cccc(C(F)(F)F)n3)n2)Nc2cc(cc(C(F)(F)F)c2)C/C=C\CO1 (stereo unspecified),267
2,CC(C)(O)CNc1nc(Nc2ccccc2)nc(-c2cccc(C(F)(F)F)n2)n1,98.2
3,CC1(C)CNc2nc(nc(-c3cccc(C(F)(F)F)n3)n2)Nc2cc(cc(C(F)(F)F)c2)C/C=C\CO1,396
4,O=C1NCCCCNc2nc(nc(-c3cccc(C(F)(F)F)n3)n2)Nc2cc1cc(C(F)(F)F)c2,699
5,CC1(C)CNc2nc(nc(-c3cccc(C(F)(F)F)n3)n2)Nc2cc(cc(C(F)(F)F)c2)OCCCO1,79.3
6,CC1(C)CCNc2nc(nc(-c3cccc(C(F)(F)F)n3)n2)Nc2cc(cc(C(F)(F)F)c2)CCCCO1,182
7,O=C1OCCCCCNc2nc(nc(-c3cccc(C(F)(F)F)n3)n2)Nc2cc1cc(C(F)(F)F)c2,105
8,CC(C)(O)CNc1nc(Nc2ccnc(C(F)(F)F)c2)nc(-c2cccc(C(F)(F)F)n2)n1 [ENASIDENIB MESYLATE],124
9,FC(F)(F)c1cc2cc(c1)Nc1nc(nc(-c3cccc(C(F)(F)F)n3)n1)NCCCCC2,1240
10,CC(C)(O)CNc1nc(Nc2ccncc2)nc(-c2cccc(C(F)(F)F)n2)n1,663

# These reach a lower IC50. Values come first.
row,IC50 [nM],Structure (SMILES)
1,51,FC(F)(F)c1cc2cc(c1)OCCCCCNc1nc(nc(-c3cccc(C(F)(F)F)n3)n1)N2
2,45.6,CC1CNc2nc(nc(-c3cccc(C(F)(F)F)n3)n2)Nc2cc(cc(C(F)(F)F)c2)CCCCO1 (stereo unspecified)
3,37.9,Cc1cc2cc(c1)Nc1nc(nc(-c3cccc(C(F)(F)F)n3)n1)NCCOC/C=C\C2
4,37.6,FC(F)(F)c1cc2cc(c1)Nc1nc(nc(-c3cccc(C(F)(F)F)n3)n1)NCCCC/C=C/C2
5,37.6,FC(F)(F)c1cc2cc(c1)Nc1nc(nc(-c3cccc(C(F)(F)F)n3)n1)NCCCCC/C=C/C2
6,36,FC(F)(F)c1cccc(-c2nc3nc(n2)Nc2cc(Cl)cc(c2)C/C=C\COCCN3)n1
7,35.9,CC(C)(O)CNc1nc(Nc2ccnc(C(F)(F)F)c2)nc(-c2cccc(C(F)(F)F)n2)n1 [ENASIDENIB]
8,32.8,C=CCOC(C)(C)CNc1nc(Nc2cccc(C(F)(F)F)c2)nc(-c2cccc(C(F)(F)F)n2)n1
9,29.5,Fc1cc2cc(c1)Nc1nc(nc(-c3cccc(C(F)(F)F)n3)n1)NCCOC/C=C\C2
10,22.2,Cc1cc2cc(c1)Nc1nc(nc(-c3cccc(C(F)(F)F)n3)n1)NCCOCCCC2
11,19.9,FC(F)(F)c1cc2cc(c1)Nc1nc(nc(-c3cccc(C(F)(F)F)n3)n1)NCCCCCCC2
12,18.6,Fc1cc2cc(c1)Nc1nc(nc(-c3cccc(C(F)(F)F)n3)n1)NCCOCCCC2
13,17.4,FC(F)(F)c1cc2cc(c1)OC/C=C\CCCNc1nc(nc(-c3cccc(C(F)(F)F)n3)n1)N2
14,12.2,FC(F)(F)c1cccc(-c2nc3nc(n2)Nc2cc(Cl)cc(c2)CCCCOCCN3)n1

# System: TF-1
# Assay: Cytotoxicity aganist human TF-1 cells harboring IDH2 mutant
# Assay type: functional, cell-based
row,Structure (SMILES),IC50 [nM]
1,FC(F)(F)c1cc2cc(c1)Nc1nc(nc(-c3cccc(C(F)(F)F)n3)n1)NCCCCC2,> 10000
2,CC(C)(O)CNc1nc(Nc2ccncc2)nc(-c2cccc(C(F)(F)F)n2)n1,> 10000

# Source: ChEMBL document CHEMBL4706511, “Structure-based design, synthesis and bioactivity evaluation of macrocyclic inhibitors of mutant isocitrate dehydrogenase 2 (IDH2) displaying activity in acute myeloid leukemia cells” (Eur J Med Chem, 2020)
